One assay deals with human P2Y12 receptor (Homo sapiens, UniProt Q9H244). The assay can be described thus: Human P2Y12 recombinant cell membrane binding assay with 33P 2MeS-ADP. The note with it: competition against 33P 2MeS-ADP, membranes of CHO cells with recombinant human P2Y12 receptor. Summed up: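 Competition binding against radiolabeled 2MeS-ADP (1.61 nM as added) on membranes from recombinant human P2Y12 CHO cells, 20 min RT after 15 min compound preincubation, pH 7.4. Filtration then scintillation counting; compounds tested in triplicate from 10 μM final, five-fold dilutions, curve fit with plate-defined min/max.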
Chain of human P2Y12 receptor (Q9H244 whole entry): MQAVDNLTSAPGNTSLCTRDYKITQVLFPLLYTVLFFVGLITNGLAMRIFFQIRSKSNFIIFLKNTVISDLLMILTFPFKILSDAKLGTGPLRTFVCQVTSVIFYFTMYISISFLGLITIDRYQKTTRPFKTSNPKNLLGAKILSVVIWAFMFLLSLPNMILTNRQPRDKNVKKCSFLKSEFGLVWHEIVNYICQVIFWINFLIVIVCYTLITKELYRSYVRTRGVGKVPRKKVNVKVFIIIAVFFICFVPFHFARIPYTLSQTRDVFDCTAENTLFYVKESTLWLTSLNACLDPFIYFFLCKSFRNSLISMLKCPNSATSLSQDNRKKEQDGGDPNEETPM

Assay [1] deals with human platelet rich plasma. As to the kind of experiment: Inhibition of human platelet aggregation, 96-well assay. In kind it is cell-based. The note with it: Homo sapiens, Platelet, 20 min. The method, boiled down: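 ADP-induced aggregation read as 650 nm absorbance every minute for 20 min at 37 °C, with shaking between reads. PRP (~3×E8 platelets/ml, diluted with PPP, ACD-A blood from healthy volunteers) was exposed to compound for 5 min before adding a 40 μM ADP stock (15 μl into 150 μl).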

The text below walks through data of US8426420B2, “Heterocyclic pyrazole-carboxamidesas P2Y12 antagonists” (Sanofi, priority 2007, dated 2013).

pIC50: −log10 of the molar value.

For orientation: pIC50 means the negative decadic logarithm of the IC50, by convention in mol/L. Turning to `O=C(O)CC[C@H](NC(=O)c1cc(OCC(=O)N2CCC[C@H]2C(=O)NCC2CC2)n(-c2ccccc2)n1)C(=O)N1CCN(C(=O)OCc2ccccc2)CC1` [Example 161, 4-[(S)-4-Carboxy-2-({5-[2-((S)-2-(cyclopropylmethyl-carbamoyl)-pyrrolidin-1-yl)-2-oxo-ethoxy]-1-phenyl-1H-pyrazole-3-carbonyl}-amino)-butyryl]-piperazine-1-carboxylic acid benzyl ester], the pIC50 at human P2Y12 receptor is 7.48; in assay [1] it was 6.62.

Regarding `CCOC(=O)N1CCN(C(=O)[C@H](CCC(=O)O)NC(=O)c2cc(OCC(=O)N3CCC[C@H]3C(=O)NC3CCC3)n(-c3ccccc3)n2)CC1` [Example 5], the pIC50 at human P2Y12 receptor was 7.72; in assay [1] it was 7.52.

For `CCCOC(=O)N1CCN(C(=O)[C@@H](C)NC(=O)c2cc(OCC(=O)N3CCC[C@H]3C(=O)NC3CCC3)n(-c3ccccc3)n2)CC1` [Example 206, 4-[(R)-2-({5-[2-((S)-2-Cyclobutylcarbamoyl-pyrrolidin-1-yl)-2-oxo-ethoxy]-1-phenyl-1H-pyrazole-3-carbonyl}-amino)-propionyl]-piperazine-1-carboxylic acid propyl ester], the negative-log IC50 (pIC50) is 6.73 on human P2Y12 receptor and 6.39 in assay [1].

For the molecule `CCOC(=O)N1CCN(C(=O)[C@H](CCC(=O)O)NC(=O)c2cc(OCC(=O)N3CCC[C@H]3C(=O)NCC(F)F)n(-c3cccc(F)c3)n2)CC1` [Example 76, 4-((S)-4-Carboxy-2-{[5-[2-((S)-2-(2,2-difluoroethylcarbamoyl)-pyrrolidin-1-yl)-2-oxo-ethoxy]-1-(3-fluoro-phenyl)-1H-pyrazole-3-carbonyl]-amino}-butyryl)-piperazine-1-carboxylic acid ethyl ester], the results for the negative logarithm of the IC50 (pIC50) (on human P2Y12 receptor; in assay [1]) were 7.55 and 6.77, respectively.

Regarding `CCCCOC(=O)N1CCN(C(=O)[C@H](CCCOC(C)=O)NC(=O)c2cc(OCC(=O)N3CCC[C@H]3C(=O)NC3CCC3)n(-c3ccccc3)n2)CC1` [Example 211, 4-[(S)-5-Acetoxy-2-({5-[2-((S)-2-cyclobutylcarbamoyl-pyrrolidin-1-yl)-2-oxo-ethoxy]-1-phenyl-1H-pyrazole-3-carbonyl}-amino)-pentanoyl]-piperazine-1-carboxylic acid butyl ester], the results for the pIC50 (at human P2Y12 receptor; in assay [1]) were 7.70 and 6.55, respectively.

In the case of `CCCOC(=O)N1CCN(C(=O)[C@H](CC(F)(F)F)NC(=O)c2cc(OCC(=O)N3CCC[C@H]3C(=O)NC3CCC3)n(-c3ccccc3)n2)CC1` [Example 273, 4-[(S)-2-({5-[2-((S)-2-Cyclobutylcarbamoyl-pyrrolidin-1-yl)-2-oxo-ethoxy]-1-phenyl-1H-pyrazole-3-carbonyl}-amino)-4,4,4-trifluoro-butyryl]-piperazine-1-carboxylic acid propyl ester], the figures for the pIC50 (on human P2Y12 receptor; in assay [1]) were 6.80 and 6.42, respectively.

As for `CCCOC(=O)N1CCN(C(=O)[C@H](C)NC(=O)c2cc(OCC(=O)N3CCC[C@H]3C(=O)NC3CCC3)n(-c3ccccc3)n2)CC1` [Example 208, 4-[(S)-2-({5-[2-((S)-2-Cyclobutylcarbamoyl-pyrrolidin-1-yl)-2-oxo-ethoxy]-1-phenyl-1H-pyrazole-3-carbonyl}-amino)-propionyl]-piperazine-1-carboxylic acid propyl ester], the values for the pIC50 (on human P2Y12 receptor; in assay [1]) were 6.90 and 6.41, respectively.

As to `O=C(NCC(=O)N1CCN(C(=O)OC2CCCC2)CC1)c1cc(OCC(=O)N2CCC[C@H]2C(=O)NC2CCC2)n(-c2ccccc2)n1` [Example 268, 4-[2-({5-[2-((S)-2-Cyclobutylcarbamoyl-pyrrolidin-1-yl)-2-oxo-ethoxy]-1-phenyl-1H-pyrazole-3-carbonyl}-amino)-acetyl]-piperazine-1-carboxylic acid cyclopentyl ester], the pIC50 was 7.00 on human P2Y12 receptor and 7.70 in assay [1].

Regarding `CCOC(=O)N1CCN(C(=O)[C@H](CF)NC(=O)c2cc(OCC(=O)N3CCC[C@H]3C(=O)NC3CCC3)n(-c3ccccc3)n2)CC1` [Example 261, 4-[(R)-2-({5-[2-((S)-2-Cyclobutylcarbamoyl-pyrrolidin-1-yl)-2-oxo-ethoxy]-1-phenyl-1H-pyrazole-3-carbonyl}-amino)-3-fluoro-propionyl]-piperazine-1-carboxylic acid ethyl ester], the figures for the negative-log IC50 (pIC50) (at human P2Y12 receptor; in assay [1]) were 7.74 and 7.22, respectively.

Regarding `O=C(O)CC[C@H](NC(=O)c1cc(OCC(=O)N2CCC[C@H]2C(=O)NC2CCC2)n(-c2ccccc2)n1)C(=O)N1CCN(C(=O)OC2CCC2)CC1` [Example 163, 4-[(S)-4-Carboxy-2-({5-[2-((S)-2-cyclobutylcarbamoyl-pyrrolidin-1-yl)-2-oxo-ethoxy]-1-phenyl-1H-pyrazole-3-carbonyl}-amino)-butyryl]-piperazine-1-carboxylic acid cyclobutyl ester], the values for the pIC50 (on human P2Y12 receptor; in assay [1]) were 7.89 and 8.00, respectively.

As to `CCOC(=O)N1CCN(C(=O)[C@H](CCC(=O)OCC(C)C)NC(=O)c2cc(OCC(=O)N3CCC[C@H]3C(=O)NC3CCC3)n(-c3ccccc3)n2)CC1` [Example 135, 4-[(S)-2-({5-[2-((S)-2-Cyclobutylcarbamoyl-pyrrolidin-1-yl)-2-oxo-ethoxy]-1-phenyl-1H-pyrazole-3-carbonyl}-amino)-4-isobutoxycarbonyl-butyryl]-piperazine-1-carboxylic acid ethyl ester], the pIC50 on human P2Y12 receptor is 7.22; in assay [1], 6.18.

As to `CCCCOC(=O)N1CCN(C(=O)[C@H](CCC)NC(=O)c2cc(OCC(=O)N3CCC[C@H]3C(=O)NC3CCC3)n(-c3ccccc3)n2)CC1` [Example 221, 4-[(S)-2-({5-[2-((S)-2-Cyclobutylcarbamoyl-pyrrolidin-1-yl)-2-oxo-ethoxy]-1-phenyl-1H-pyrazole-3-carbonyl}-amino)-pentanoyl]-piperazine-1-carboxylic acid butyl ester], the pIC50 is 7.47 on human P2Y12 receptor and 6.59 in assay [1].

For `CCOC(=O)N1CCN(C(=O)[C@H](CCC(=O)O)NC(=O)c2cc(OCC(=O)N3CCC[C@H]3C(=O)NC3CCC3)n(-c3ccc(F)c(F)c3)n2)CC1` [Example 83, 4-((S)-4-Carboxy-2-{[5-[2-((S)-2-cyclobutylcarbamoyl-pyrrolidin-1-yl)-2-oxo-ethoxy]-1-(3,4-difluoro-phenyl)-1H-pyrazole-3-carbonyl]-amino}-butyryl)-piperazine-1-carboxylic acid ethyl ester], the results for the pIC50 (on human P2Y12 receptor; in assay [1]) were 7.51 and 6.92, respectively.

On to `CCOC(=O)N1CCN(C(=O)[C@H](CCC(=O)O)NC(=O)c2cc(OCC(=O)N3CC[C@H]3C(=O)NC3CCC3)n(-c3ccccc3)n2)CC1` [Example 41, 4-[(S)-4-Carboxy-2-({5-[2-((S)-2-cyclobutylcarbamoyl-azetidin-1-yl)-2-oxo-ethoxy]-1-phenyl-1H-pyrazole-3-carbonyl}-amino)-butyryl]-piperazine-1-carboxylic acid ethyl ester], for which the pIC50 on human P2Y12 receptor was 6.96; in assay [1] it was 7.10.

Consider `CCOC(=O)N1CCN(C(=O)[C@H](CCNC(C)=O)NC(=O)c2cc(OCC(=O)N3CCC[C@H]3C(=O)NC3CCC3)n(-c3ccccc3)n2)CC1` [Example 92, 4-[(S)-4-Acetylamino-2-({5-[2-((S)-2-cyclobutylcarbamoyl-pyrrolidin-1-yl)-2-oxo-ethoxy]-1-phenyl-1H-pyrazole-3-carbonyl}-amino)-butyryl]-piperazine-1-carboxylic acid ethyl ester], for which the negative-log IC50 (pIC50) is 6.96 on human P2Y12 receptor and 5.95 in assay [1].

Take `CCOC(=O)CC[C@H](NC(=O)c1cc(OCC(=O)N2CCC[C@H]2C(=O)NC2CCC2)n(-c2ccccc2)n1)C(=O)N1CCN(C(=O)OCC)CC1` [Example 127, 4-[(S)-2-({5-[2-((S)-2-Cyclobutylcarbamoyl-pyrrolidin-1-yl)-2-oxo-ethoxy]-1-phenyl-1H-pyrazole-3-carbonyl}-amino)-4-ethoxycarbonyl-butyryl]-piperazine-1-carboxylic acid ethyl ester]: the figures for the negative logarithm of the IC50 (pIC50) (at human P2Y12 receptor; in assay [1]) were 7.43 and 6.36, respectively.

As for `CCOC(=O)N1CCN(C(=O)[C@H](CC(=O)O)NC(=O)c2cc(OCC(=O)N3CCC[C@H]3C(=O)NCC(F)(F)F)n(-c3ccccc3)n2)CC1` [Example 58, 4-{(S)-3-Carboxy-2-[(5-{2-[(S)-2-(2,2,2-trifluoro-ethylcarbamoyl)-pyrrolidin-1-yl]-2-oxo-ethoxy}-1-phenyl-1H-pyrazole-3-carbonyl)-amino]-propionyl}-piperazine-1-carboxylic acid ethyl ester], the negative logarithm of the IC50 (pIC50) at human P2Y12 receptor is 7.02; in assay [1], 7.22.

As for `CCOC(=O)N1CCN(C(=O)[C@H](CCNC(=O)C2CC2(F)F)NC(=O)c2cc(OCC(=O)N3CCC[C@H]3C(=O)NC3CCC3)n(-c3ccccc3)n2)CC1` (stereo partly drawn) [Example 187, 4-{(S)-2-({5-[2-((S)-2-Cyclobutylcarbamoyl-pyrrolidin-1-yl)-2-oxo-ethoxy]-1-phenyl-1H-pyrazole-3-carbonyl}-amino)-4-[(2,2-difluoro-cyclopropanecarbonyl)-amino]-butyryl}-piperazine-1-carboxylic acid ethyl ester], the pIC50 is 7.01 at human P2Y12 receptor and 6.36 in assay [1].

Consider `CCOC(=O)N1CCN(C(=O)[C@H](CCNS(=O)(=O)C(F)(F)F)NC(=O)c2cc(OCC(=O)N3CCC[C@H]3C(=O)NC3CCC3)n(-c3ccccc3)n2)CC1` [Example 188, 4-[(S)-2-({5-[2-((S)-2-Cyclobutylcarbamoyl-pyrrolidin-1-yl)-2-oxo-ethoxy]-1-phenyl-1H-pyrazole-3-carbonyl}-amino)-4-trifluoromethanesulfonylamino-butyryl]-piperazine-1-carboxylic acid ethyl ester], for which the pIC50 was 8.00 at human P2Y12 receptor and 6.31 in assay [1].
